Reference: the supplement of paper PMC10307832

What was measured:
Experiment in all cases: relative viability (nuclei count vs DMSO), 5 days (fraction); higher = more cells survive
[1] = compound: C1COCCN1C2=NC(=NC3=C2OC4=C3C=CC=N4)C5=CC(=CC=C5)NC(=O)C6=CN=C(C=C6)N + N=C(N)NC(=N)NCCc1ccccc1 [Phenformin] (partner 250 µM)
Outline: (§1)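 Lung cancer cell lines were pin-tool dosed in 1536-well plates on the day after seeding, with either a lone drug or a fixed anchor-drug dose plus five library-drug doses (not always all listed) in √10 steps. Nuclei were counted on 4× images after 5 days. Relative viability is the ratio of treated-well to vehicle-well nuclei counts, with each value a median of duplicate plates.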

[2] = compound: C1COCCN1C2=NC(=NC3=C2OC4=C3C=CC=N4)C5=CC(=CC=C5)NC(=O)C6=CN=C(C=C6)N + C[C@@H](Oc1cc(-c2cnn(C3CCNCC3)c2)cnc1N)c1c(Cl)ccc(F)c1Cl [Crizotinib] (partner 1 µM)
Outline: as §1

Entinostat + Bortezomib = compound: Nc1ccccc1NC(=O)c1ccc(CNC(=O)OCc2cccnc2)cc1 [Entinostat] + CC(C)C[C@H](NC(=O)[C@H](Cc1ccccc1)NC(=O)c1cnccn1)B(O)O [Bortezomib] (partner 0.002 µM)
Outline: as §1

SGI-1776 + Dasatinib = compound: CN1CCC(CNc2ccc3ncc(-c4cccc(OC(F)(F)F)c4)n3n2)CC1 [SGI-1776] + Cc1nc(Nc2ncc(C(=O)Nc3c(C)cccc3Cl)s2)cc(N2CCN(CCO)CC2)n1 [Dasatinib] (partner 0.075 µM)
Outline: as §1

| Cell Line | relative viability ([1]; first compound 0.02 µM) | relative viability ([1]; first compound 0.06325 µM) | relative viability ([1]; first compound 0.2 µM) | relative viability ([1]; first compound 0.6325 µM) | relative viability ([1]; first compound 2 µM) | relative viability ([2]; first compound 0.02 µM) | relative viability ([2]; first compound 0.06325 µM) | relative viability ([2]; first compound 0.2 µM) | relative viability ([2]; first compound 0.6325 µM) | relative viability ([2]; first compound 2 µM) | relative viability (Entinostat + Bortezomib; first compound 0.02 µM) | relative viability (Entinostat + Bortezomib; first compound 0.06325 µM) | relative viability (Entinostat + Bortezomib; first compound 0.2 µM) | relative viability (Entinostat + Bortezomib; first compound 0.6325 µM) | relative viability (Entinostat + Bortezomib; first compound 2 µM) | relative viability (SGI-1776 + Dasatinib; first compound 0.08 µM) | relative viability (SGI-1776 + Dasatinib; first compound 0.8 µM) | relative viability (SGI-1776 + Dasatinib; first compound 2.53 µM) | relative viability (SGI-1776 + Dasatinib; first compound 8 µM) |
| --- | --- | --- | --- | --- | --- | --- | --- | --- | --- | --- | --- | --- | --- | --- | --- | --- | --- | --- | --- |
| HOP-62 | 0.762 | 0.874 | 0.686 | 0.546 | 0.294 | 1.08 | 1.14 | 0.714 | 0.695 | 0.65 | 0.804 | 0.591 | 0.763 | 0.398 | 0.17 | 0.724 | 0.679 | 0.531 | 0.597 |
| LC-2-ad | 0.551 | 0.598 | 0.456 | 0.493 | 0.49 | 0.486 | 0.494 | 0.411 | 0.5 | 0.387 | 0.961 | 0.895 | 0.818 | 0.591 | 0.197 | 0.726 | 0.521 | 0.397 | 0.402 |
| LCLC-97TM1 | 0.446 | 0.475 | 0.409 | 0.452 | 0.419 | – | 0.407 | 0.321 | 0.341 | 0.308 | 0.69 | 0.912 | 0.912 | 0.355 | 0.128 | 0.783 | 0.938 | 0.85 | 0.949 |
| LCLC-103H | 0.328 | 0.34 | 0.33 | 0.343 | 0.252 | 1.03 | 1.15 | 1.09 | 0.957 | 0.974 | 1.05 | 1.04 | 1.11 | 0.868 | 0.498 | 0.527 | 0.479 | 0.535 | 0.432 |
| LOU-NH91 | 0.709 | 0.723 | 0.724 | 0.721 | 0.652 | 0.729 | 0.755 | 0.76 | 0.74 | 0.664 | 0.496 | 0.52 | 0.534 | 0.545 | 0.512 | 0.571 | 0.597 | 0.555 | 0.43 |
| LU99A | 0.845 | 0.876 | 0.78 | 0.371 | 0.255 | 0.602 | 0.65 | 0.477 | 0.49 | 0.327 | 1.02 | 1.26 | 1 | 0.801 | 0.784 | 0.727 | 0.56 | 0.382 | 0.441 |
| LXF-289 | 0.523 | 0.536 | 0.541 | 0.49 | 0.383 | 0.859 | 0.903 | 0.821 | 0.858 | 0.604 | 1.01 | 0.986 | 0.96 | 0.725 | 0.646 | 0.222 | 0.224 | 0.148 | 0.161 |
| NCI-H23 | 0.818 | – | 0.815 | 0.747 | 0.669 | 0.56 | 0.487 | 0.38 | 0.511 | 0.344 | 0.91 | 1.41 | 1.12 | 0.808 | 0.497 | 0.819 | 0.84 | 0.813 | 0.831 |
| NCI-H322M | 0.781 | 0.786 | 0.683 | 0.735 | 0.508 | 0.854 | 0.991 | 0.879 | 0.934 | 0.657 | 1.33 | 1.33 | 1.31 | 1.27 | 1.3 | 0.27 | 0.252 | 0.208 | 0.252 |
| NCI-H441 | 0.798 | 0.868 | 0.731 | 0.833 | 0.527 | 0.71 | 0.679 | 0.688 | 0.923 | 0.415 | 0.443 | 0.598 | 0.409 | 0.181 | 0.118 | 0.633 | 0.625 | 0.539 | 0.55 |
| NCI-H460 | 0.554 | 0.57 | 0.512 | 0.144 | 0.0234 | 1.16 | 1.03 | 0.913 | 0.927 | 0.144 | 1.09 | 1.05 | 0.85 | 0.0581 | 0.0179 | 0.52 | 0.543 | 0.508 | 0.299 |
| NCI-H520 | 0.597 | 0.631 | 0.588 | 0.479 | 0.403 | 0.925 | 0.775 | 0.803 | 0.756 | 0.443 | 0.602 | 0.667 | 0.558 | 0.195 | 0.161 | 0.279 | 0.221 | 0.153 | 0.131 |
| NCI-H596 | 0.768 | 0.916 | 0.754 | 0.598 | 0.61 | 1.1 | 0.983 | 0.99 | 0.942 | 0.746 | 1.09 | 1.16 | 1 | 0.974 | 0.902 | 0.571 | 0.528 | 0.51 | 0.441 |
| NCI-H647 | 0.574 | 0.768 | 0.466 | 0.519 | 0.195 | 1.16 | 1.17 | 0.943 | 1.09 | 0.283 | 1.02 | 1.01 | 0.869 | 0.216 | 0.0717 | 0.188 | 0.184 | 0.111 | 0.117 |
| NCI-H650 | 0.453 | 0.469 | 0.417 | 0.457 | 0.431 | 0.654 | 0.713 | 0.798 | 0.755 | 0.559 | 1.02 | 0.916 | 0.773 | 0.426 | 0.171 | 0.492 | 0.497 | 0.434 | 0.37 |
| NCI-H661 | 0.268 | 0.3 | 0.263 | 0.248 | 0.206 | 1.16 | 1.27 | 0.971 | 1.12 | 0.932 | 0.956 | 0.883 | 0.861 | 0.781 | 0.7 | 1 | 0.979 | 0.837 | 0.692 |
| NCI-H727 | 0.441 | 0.629 | 0.502 | 0.469 | 0.458 | 0.908 | 0.962 | 0.739 | 0.725 | 0.505 | 0.714 | 0.965 | 0.754 | 0.574 | 0.329 | 0.4 | 0.426 | 0.351 | 0.356 |
